The text below walks through data of US5767096A, “Bromotiacumicin compounds” (Abbott Laboratories, priority 1996, dated 1998).

Holding throughout (type): cell-based
Assay [1] has as its system Enterococcus faecium ATCC 8043. Kind of assay: In vitro antibiotic activity (MIC), agar dilution, brain heart infusion agar. The note with it: ~10^4 organisms per spot, 37° C., ~20 hours. The protocol: (§1) Optical rotations were measured on a Perkin-Elmer Model 241 polarimeter in a 10 cm cell. Fast atom bombardment mass spectra were measured on a Kratos MS-50 mass spectrometer. Ultraviolet spectra were recorded on a Perkin-Elmer Lambda 3B UV-visible spectrophotometer and infrared spectra on a Nicolet model 60SX FT-IR attached to a Nicolet computer. NMR spectra were acquired on either a General Electric GN500 or GN300 spectrometer. […] Rf values reported were acquired on Analtech TLC plates developed with chloroform:methanol (9:1, v:v) and were visualized using ceric sulfate spray reagent. Melting points were determined on a Hoover Unimelt and are reported uncorrected. Minimal inhibitory concentrations were determined by twofold agar dilution. Brain heart infusion agar was used for aerobes and Wilkins-Chalgren agar for anaerobes.
(§2) For primary screening of compounds of the invention against selected aerobic microorganisms, minimal inhibitory concentrations (MICs) were determined by the following agar dilution method: Series of two-fold dilutions of the test compounds were added to brain heart infusion agar. The agar plates were inoculated with approximately 10^4 organisms per spot of each of the organisms to be tested. These inoculated agar plates were then incubated at 37° C. for approximately 20 hours. The MICs were determined as the minimal concentration of test compound (in […]) that inhibited visible growth.

The next assay has as its system Escherichia coli JUHL. Described as above. The note with it: ~10^4 organisms per spot, 37° C., ~20 hours. The protocol:
as §1, §2

Assay [2] concerns Staphylococcus aureus ATCC 6538P. The description is as above. The conditions noted are these: ~10^4 organisms per spot, 37° C., ~20 hours. The method, then:
as §1, §2

Assay [3] has as its system Staphylococcus epidermidis 3519. The assay is described as above. The note with it: ~10^4 organisms per spot, 37° C., ~20 hours. The protocol: as §1, §2
Assay [4] concerns Streptococcus pyogenes EES61. The assay is described as above. The conditions noted are these: ~10^4 organisms per spot, 37° C., ~20 hours. The method, then:
as §1, §2

Assay [5] concerns Clostridium difficile 2532. Kind of assay: In vitro antibiotic activity (MIC) against anaerobes, agar dilution, Wilkins-Chalgren agar. The conditions noted are these: anaerobe, ~10^5 organisms per spot, 37° C., ~48 hours. The method, then: as §1
(§3) For primary screening of compounds of the invention against anaerobic bacteria such as Clostridium, minimal inhibitory concentrations (MICs) were determined by the following agar dilution method: Series of two-fold dilutions of the test compounds were added to Wilkins-Chalgren agar. The agar plates were inoculated with approximately 10^5 organisms per spot of each of the organisms to be tested. The inoculated agar plates were then incubated at 37° C. for approximately 48 hours. The MICs were determined as the minimal concentration of test compound (in […]) that inhibited visible growth.

Assay [6] relates to Clostridium difficile ATCC 17857. The description is as above. The conditions noted are these: anaerobe, ~10^5 organisms per spot, 37° C., ~48 hours. The method, then: as §1, §3
Assay [7] concerns Clostridium difficile ATCC 9689. The description is as above. The note with it: anaerobe, ~10^5 organisms per spot, 37° C., ~48 hours. The protocol:
as §1, §3

Assay [8] relates to Clostridium perfringes ATCC 13124. Kind of assay: microbe, parasite or virus in culture. The note with it: anaerobe, ~10^5 organisms per spot, 37° C., ~48 hours. The protocol: as §1, with “Fast” for “Optical rotations were measured on a Perkin-Elmer Model 241 polarimeter in a 10 cm cell. Fast”
as §3

The subject of assay [9] is Bacteriodes thetaiotaomicron ATCC 29741. Kind of assay: In vitro antibiotic activity (MIC) against anaerobes, agar dilution, Wilkins-Chalgren agar. The conditions noted are these: anaerobe, ~10^5 organisms per spot, 37° C., ~48 hours. The method, then:
as §1, §3

Assay [10] relates to Bacteroides fragilis ATCC 25285. The description is as above. The conditions noted are these: ATCC25285, anaerobe, ~10^5 organisms per spot, 37° C., ~48 hours. The protocol:
as §1, §3

Another assay relates to bacterial pathogens. Kind of assay: In vitro activity against bacterial pathogens (summary in words). The conditions noted are these: from Table 2. The method, then: Optical rotations were measured on a Perkin-Elmer Model 241 polarimeter in a 10 cm cell. Fast atom bombardment mass spectra were measured on a Kratos MS-50 mass spectrometer. Ultraviolet spectra were recorded on a Perkin-Elmer Lambda 3B UV-visible spectrophotometer and infrared spectra on a Nicolet model 60SX FT-IR attached to a Nicolet computer. NMR spectra were acquired on either a General Electric GN500 or GN300 spectrometer. NMR spectral data are reported in Table 1 (following Example 6 below). Rf values reported were acquired on Analtech TLC plates developed with chloroform:methanol (9:1, v:v) and were visualized using ceric sulfate spray reagent. Melting points were determined on a Hoover Unimelt and are reported uncorrected. Minimal inhibitory concentrations were determined by twofold agar dilution. Brain heart infusion agar was used for aerobes and Wilkins-Chalgren agar for anaerobes.
For primary screening of compounds of the invention against selected aerobic microorganisms, minimal inhibitory concentrations (MICs) were determined by the following agar dilution method: Series of two-fold dilutions of the test compounds were added to brain heart infusion agar. […] The MICs were determined as the minimal concentration of test compound (in […]) that inhibited visible growth. […]

[11] abbreviates: Enterococcus faecium, ATCC8043, read-out: MIC.
Where [12] appears, read: Escherichia coli, read-out: MIC.
Where [13] appears, read: Staphylococcus aureus, ATCC6538P, read-out: MIC.
Setting [14] is: Staphylococcus epidermidis, 3519, read-out: MIC.
Setting [15] is: Streptococcus pyogenes, EES61, read-out: MIC.
The mark [16] stands for this setting: Clostridioides difficile, 2532, read-out: MIC.
Where [17] appears, read: Clostridioides difficile, ATCC17857, read-out: MIC.
Setting [18] is: Clostridioides difficile, ATCC9689, read-out: MIC.
Where [19] appears, read: Clostridium, ATCC13124, read-out: MIC.

Values after ≈ are worked out from the molar mass of the structure shown. Read-outs that look alike come from different tables or passages of the source.

Take “4'",6'"-didechloro-4'"-bromotiacumicin B [Ex. 5]”: the MIC in [1] was 12.5 µg/mL; with Escherichia coli JUHL, > 200 µg/mL; in [2], 6.2 µg/mL; in assay [3], 12.5 µg/mL; in [4], 25 µg/mL; in [5], 0.5 µg/mL. For the same compound, the MIC in [6] was 0.25 µg/mL; in [7], 0.12 µg/mL; in assay [8] it was “<= 0.06 μg/mL”.

Regarding “4'",6'"-didechloro-4'"-bromotiacumicin C [Ex. 6]”, the MIC in assay [1] was 25 µg/mL; against Escherichia coli JUHL, > 200 µg/mL; in [2], 50 µg/mL; in assay [3], 50 µg/mL; in assay [4], 50 µg/mL; in assay [5], 2 µg/mL. The MIC in assay [6] worked out at 1 µg/mL; in assay [7] it was 0.5 µg/mL; in assay [8] it was 0.06 µg/mL.

`CCc1c(Br)c(O)c(Cl)c(O)c1C(=O)O[C@H]1[C@H](O)[C@H](OC)[C@H](OC/C2=C\C=C\C[C@H](O)/C(C)=C/[C@H](CC)[C@@H](O[C@@H]3OC(C)(C)[C@@H](OC(=O)C(C)C)[C@H](O)[C@@H]3O)/C(C)=C/C(C)=C/C[C@@H]([C@@H](C)O)OC2=O)O[C@@H]1C` [Ex. 3, 6'"-dechloro-6'"-bromotiacumicin B]: the MIC in [1] (setting [11]) is 6.2 µg/mL (≈ 5.62 µM); in the assay on Escherichia coli JUHL (setting [12]) it was > 200 µg/mL; in assay [2] (setting [13]), 6.2 µg/mL (≈ 5.62 µM); in [3] (setting [14]), 6.2 µg/mL (≈ 5.62 µM); in assay [4] (setting [15]) it was 6.2 µg/mL (≈ 5.62 µM); in assay [9], > 128 µg/mL. For the same compound, the MIC is > 128 µg/mL in assay [10]; 0.06 µg/mL (≈ 0.0544 µM) in assay [5] (setting [16]); 0.06 µg/mL (≈ 0.0544 µM) in assay [6] (setting [17]); 0.06 µg/mL (≈ 0.0544 µM) in assay [7] (setting [18]); 0.03 µg/mL (≈ 0.0272 µM) in assay [8] (setting [19]). The “potency among compounds of this invention” value with bacterial pathogens is “the most potent of the compounds of this invention”. For the same compound, the “potency compared with tiacumicin B” value in the assay with bacterial pathogens is “quite comparable to tiacumicin B”.

In the case of `CCc1c(Br)c(O)c(Cl)c(O)c1C(=O)O[C@H]1[C@H](O)[C@H](OC)[C@H](OC/C2=C\C=C\C[C@H](O)/C(C)=C/[C@H](CC)[C@@H](O[C@@H]3OC(C)(C)[C@@H](OC(=O)C(C)C)[C@H](O)[C@@H]3O)/C(C)=C/C(C)=C/C[C@@H](C(C)=O)OC2=O)O[C@@H]1C` [Ex. 4, 6'"-dechloro-6'"-bromo-18-ketotiacumicin B], the MIC is 50 µg/mL (≈ 45.4 µM) in assay [1] (setting [11]); > 200 µg/mL in the assay with Escherichia coli JUHL (setting [12]); 50 µg/mL (≈ 45.4 µM) in [2] (setting [13]); 100 µg/mL (≈ 90.9 µM) in assay [3] (setting [14]); 50 µg/mL (≈ 45.4 µM) in assay [4] (setting [15]); > 128 µg/mL in assay [9]. The MIC was > 128 µg/mL in assay [10]; 1 µg/mL (≈ 0.909 µM) in assay [5] (setting [16]); 0.25 µg/mL (≈ 0.227 µM) in [6] (setting [17]); 0.25 µg/mL (≈ 0.227 µM) in assay [7] (setting [18]); 0.015 µg/mL (≈ 0.0136 µM) in [8] (setting [19]).
